Here are results for one compound from patent publication US20220331353A1, “SYNERGISTIC COMPOSITIONS AND METHODS TO INCREASE VASCULAR NITRIC OXIDE TO TREAT ENDOTHELIAL DYSFUNCTION AND RELATED CONDITIONS” (Calroy Health Sciences, LLC, priority 2021, published 2022).

The nature of the assay: Transdermal hydrogen sulfide on forearm after N-acetyl cysteine, Interscan Halimeter PLUS. To be noted: 600 mg oral; for Transdermal Hydrogen Sulfide H2S: adult male, forearm. The format is in vivo, human. As to the method: We hypothesized that formula 2 sustained a higher level of bioavailable NO than formula 1 because N-acetyl cysteine generates hydrogen sulfide in the body. To test this hypothesis, we measured transdermal hydrogen sulfide on the surface of the forearm after an adult subject ingested 600 mg of N-acetyl cysteine. The test was performed using Interscan Halimeter® PLUS with a simple modification of sample collection method. Hydrogen sulfide, the primary volatile sulfur compounds detectable by the device, was measured in triplicate for 6 hours after dosing with N-acetyl cysteine (Table IV). […] The data support a mechanism wherein N-acetyl cysteine increases hydrogen sulfide production that boosts NO availability and activity in the body.

As to `CC(=O)N[C@@H](CS)C(=O)O` [N-acetyl cysteine], the “Transdermal Hydrogen Sulfide H2S” value by setting is: (0 h) 16 ppb; (2 h) 27 ppb; (3 h) 46 ppb; (4 h) 51 ppb; (5 h) 40 ppb; (6 h) 16 ppb. For the same compound, the transdermal hydrogen sulfide amounted to 51 ppb (peak at 4 hours), 16 ppb (starting value) and 27 ppb (within 2 hours).
